Reference: patent US20210405025A1, “IDENTIFYING COMPOUNDS FOR TREATING CANCER AND USE THEREOF” (THE UAB RESEARCH FOUNDATION, priority 2018, published 2021)
Counter-ions that a name gives are not always drawn.

test system: relapsed AML cells; test: Drug sensitivity assay, 1,536-well, 3-day culture with individual approved drugs at 10 μM, viability by alamarBlue; format: cell-based, human; settings: not given
Description: Drug sensitivity assays were performed using a 1,536-well platform where all cells and reagents were deposited in wells using an acoustic liquid handling unit that is highly accurate for dispensing of nanoliter volumes of liquid. […] After dispensing the cells into the wells, an independent drug at a known concentration is added to each well and incubated with the cells. After three days, the percentage of live cells in each well is determined to assess the killing efficiency of each compound. […] Cell viability assays are known to those of skill in the art. See, for example, Pemovska et al., Individualized systems medicine strategy to tailor treatments for patients with chemorefractory acute myeloid leukemia. Cancer Discovery 3:1416-1429, 2013; Pabst et al., Identification of small molecules that support human leukemia stem cell activity ex vivo. Nature Methods 11:436-442, 2014; Baccelli et al., A novel approach for the identification of efficient combination therapies in primary human acute myeloid leukemia specimens. Blood Cancer Journal 7:e529, 2017. In studies described herein, the 1,536-well format was utilized, which allowed for use of four times fewer cells as well as less drug and media components due to the small assay volume of 5 microliters. […] Other compounds like CellTiter-Glo (Promega, Madison, Wis.) are equally appropriate reagents for determining cell viability.
Conditions for the drug screening assays were as described in Pabst et al., Identification of small molecules that support human leukemia stem cell activity ex vivo, Nature Methods 11:436-442, 2014). Using this protocol, cells were cultured in Iscove's Modified Dulbecco's Medium (IMDM), 15% BIT (bovine serum albumin, insulin, transferrin; Stem Cell Technologies 09500 (Vancouver, Calif.)), 100 ng/ml SCF (Shenandoah 100-04 (Warwick, Pa.)), 50 ng/ml FLT3L (Shenandoah 100-21), 20 ng/ml IL-3 (Shenandoah 100-80), 20 ng/ml G-CSF (Shenandoah 100-72), 10^-4 M β-mercaptoethanol, gentamicin (50 μg/ml) and ciprofloxacin (10 μg/ml).
Cells were removed from liquid nitrogen and placed in a 37° C. bath, just until thawed. For 1,536-well screens utilizing 6,000 wells about 100 million cells were thawed. The volume was doubled with pre-warmed culture media and placed on ice for about one to two minutes. The cells were brought to a final volume of about 8 to 10 mL before spinning down at 1,100 rpm for 5 min at 10° C. The pelleted cells were resuspended in 10 mL of culture media and plated in a tissue-culture treated T75 flask at a density of 1 to 2 million cells/ml. The cells were cultured overnight prior to fluorescence-activated cell sorting of viable cells on the following day.
After cells were cultured overnight, a cell scraper was used to remove any cells that adhered to the plastic. The cells were gently pipetted up and down to break up aggregates. Then, the entire volume was transferred to a 50 mL conical tube through a 70 micron cell strainer to remove cell clumps. The T75 flask was rinsed and scraped with about 10 mL HBSS and transferred to the same 50 mL conical tube through the strainer. The harvested cells were spun down at 1,100 rpm for 5 min at 10° C. The cells were then resuspendd in about 300-500 microliters FACS buffer (HBSS+2% FBS+1× propidium iodide) and transferred to a FACS tube. The tube was placed on ice and viable cells that are forward- and side-scatter gated on viable myeloid blasts were sorted by FACS (the scatter gate should exclude small lymphocytes, large myeloid cells, and debris). After sorting the required number of viable cells, the cells were spun down at 1,100 rpm for 5 min at 10° C. and subsequently resuspended at 4,000-4,500 cells per 5 microliter volume of complete culture media with growth factors and penicillin/streptomycin.

Compound | #Cases >70% cell death
C[CH2][Hg][S]c1ccccc1C(=O)[O-].[Na+] [THIMEROSAL] | 18

same assay, conditions: number of relapsed AML cases out of 18 tested with >70% cell death; 10 μM, 3-day culture

Compound | #Cases >70% cell death
C[C@@H]1C[C@H]2[C@@H]3CCC4=CC(=O)C=C[C@]4(C)[C@@]3(F)[C@@H](O)C[C@]2(C)[C@@]1(O)C(=O)CO [DEXAMETHASONE] | 2
COc1cccc([C@@H](C)NCCCc2ccccc2Cl)c1 [TECALCET HYDROCHLORIDE] | 1
CC[C@H]1OC(=O)C[C@@H](O)[C@H](C)[C@@H](O[C@@H]2O[C@H](C)[C@@H](O[C@H]3C[C@@](C)(O)[C@@H](O)[C@H](C)O3)[C@H](N(C)C)[C@H]2O)[C@@H](CC=O)C[C@@H](C)C(=O)/C=C/C(C)=C/[C@@H]1CO[C@@H]1O[C@H](C)[C@@H](O)[C@@H](OC)[C@H]1OC [TYLOSIN] | 1
COc1cc2c(Nc3ccc(Br)cc3F)ncnc2cc1OCC1CCN(C)CC1 [VANDETANIB] | 1
CCCCNc1ccc(C(=O)OCCN(C)C)cc1 [TETRACAINE] | 12
COc1ncnc(NS(=O)(=O)c2ccc(N)cc2)c1OC [SULFADOXINE] | 1
Cc1cccc(C)c1N=C1NCCCS1 [XYLAZINE] | 4
BLEOMYCIN | 2
N#Cc1cc(CN2CCC(Nc3ncnc4sc(Cl)cc34)CC2)ccc1F [PRX-8066] | 1
CCCNCC(O)COc1ccccc1C(=O)CCc1ccccc1 (centres unmarked) [PROPAFENONE] | 1
CCN(CCCc1ccccc1)CCCc1ccccc1 [ALVERINE CITRATE] | 4
COc1cc(NC(C)CCCN)c2ncccc2c1 (centres unmarked) [PRIMAQUINE] | 12
CCCC1O[C@@H]2C[C@H]3[C@@H]4CCC5=CC(=O)C=C[C@]5(C)[C@H]4[C@@H](O)C[C@]3(C)[C@]2(C(=O)CO)O1 (some centres unmarked) [BUDESONIDE] | 2
ARSENIC TRIOXIDE DIETHANOLAMINE SALT | 16
COC(=O)C1=C(C)NC(C)=C(C(=O)OCCN2CCN(C(c3ccccc3)c3ccccc3)CC2)C1c1cccc([N+](=O)[O-])c1 (centres unmarked) [MANIDIPINE] | 5
CC(C)C(=O)Nc1ccc([N+](=O)[O-])c(C(F)(F)F)c1 [FLUTAMIDE] | 2
CN1CCOC(c2ccccc2)c2ccccc2C1 (centres unmarked) [NEFOPAM] | 2
CC(=O)[C@]1(O)Cc2c(O)c3c(c(O)c2[C@@H](O[C@H]2C[C@H](N)[C@H](O)[C@H](C)O2)C1)C(=O)c1ccccc1C3=O [IDARUBICIN] | 18
[H]/N=C(\N/C(=N/[H])NCCCCCCNC(=N)NC(=N)Nc1ccc(Cl)cc1)Nc1ccc(Cl)cc1 [CHLORHEXIDINE DIHYDROCHLORIDE] | 11
CCOC(=O)C1=C(C)NC(C)=C(C(=O)OCC)C1c1ccccc1/C=C/C(=O)OC(C)(C)C [LACIDIPINE] | 2
N#C[C@@H]1C[C@@H]2C[C@@H]2N1C(=O)[C@@H](N)C12CC3CC(CC(O)(C3)C1)C2 [SAXAGLIPTIN] | 1
CCOc1ccc2nc3cc(N)ccc3c(N)c2c1 [ETHACRIDINE LACTATE] | 2
CC[C@@H](C(=O)O)[C@@H]1O[C@@H]([C@@H](C)[C@H](O)[C@H](C)C(=O)[C@H](CC)[C@H]2O[C@]3(C=C[C@@H](O)[C@]4(CC[C@@](C)([C@H]5CC[C@](O)(CC)[C@H](C)O5)O4)O3)[C@H](C)C[C@@H]2C)[C@@H](C)C[C@@H]1C [NARASIN] | 8
Nc1ncn([C@@H]2O[C@H](CO)[C@@H](O)[C@H]2O)c(=O)n1 [AZACYTIDINE] | 8
Cc1ncc(-c2ccnc(Nc3ccc(S(C)(=O)=O)cc3)n2)n1C(C)C [AZD-5438] | 17
CCC(=O)O[C@]1(C(=O)CCl)[C@@H](C)C[C@H]2[C@@H]3CCC4=CC(=O)C=C[C@]4(C)[C@@]3(F)[C@@H](O)C[C@@]21C [CLOBETASOL PROPIONATE] | 4
Nc1ncnc2c1ncn2CCOCP(=O)(O)O [ADEFOVIR] | 18
Oc1c(Cl)cc(Cl)c2cccnc12 [CHLOROXINE] | 1
